Row | Structure (SMILES) | melting point [°C]
1 | COC(=O)c1ccc(CC(C)NCC(O)c2ccc(O)c(CO)c2)cc1O (stereo not given) | 81 to 83
2 | O=C1c2c(-c3ccccc3)cc(CO)nc2OCCN1Cc1cc(C(F)(F)F)cc(C(F)(F)F)c1 | 199 to 201
3 | COC(=O)C=CC=CCS(=O)c1ccccc1 (stereo not given) | 82 to 84
4 | CCc1cc2c(SCc3ccccc3)ncnc2s1 | 54 to 60
5 | CCOc1cc2c(Cl)c(C#N)cnc2cc1NC(C)=O | 202 to 204
6 | CNCc1ccc(S(C)(=O)=O)c(S(=O)(=O)NC(C)(C)C)c1 | 76 to 78
7 | ClCc1coc(-c2ccoc2)n1 | 70 to 71
8 | C(=CCN(c1ccccc1)c1ccccc1)CN(c1ccccc1)c1ccccc1 | 105 to 107
9 | O=c1[nH]c2cc(Cl)c(S(=O)CCN3CCC(Cc4ccccc4)CC3)cc2o1 (stereo not given) | 190 to 192
10 | CCCCCCCCCCCCCCCCCCOc1cc(N(CC(=O)O)CC(=O)O)cc([N+](=O)[O-])c1 | 131 to 134
11 | N#CC1=C(C2CCCCC2)Nc2n[nH]cc2C1c1cccc2nonc12 (stereo not given) | 210
12 | Cc1c(C)c(N2CCN(Cc3ccccc3)CC2)c(C)c2c1OC(C)(C)C2c1ccc(F)nc1 (stereo not given) | 76 to 79
13 | CC(=O)Oc1ccc2c(c1)COC(C(Cl)(Cl)Cl)N2 (stereo not given) | 155 to 157
14 | Cc1c(C)c2c(c(C)c1O)C(c1ccc(C(C)C)cc1)C1(CCN(C)CC1)O2 (stereo not given) | 114 to 117
15 | CCCCCCCCOc1cc(CBr)c(OCCCCCCCC)cc1CBr | 83
16 | CSC1CC(=O)N1CC(=O)NCc1ccccc1 (stereo not given) | 84 to 87
17 | Cc1nc2n(c(=O)c1CCN1CCC(C(=NO)c3ccc(F)cc3F)CC1)CCCC2 | 180 to 183
18 | CC(C)(O)CCC[C@@](C)(CC#CC(O)(C(F)(F)F)C(F)(F)F)[C@H]1CC[C@H]2[C@@H](O)CCC[C@]12C | 146 to 147
19 | CN1Cc2c(-c3noc(CN4CCCC4)n3)ncn2-c2ccc(F)cc2C1=O | 158 to 160
20 | O=c1[nH]c(=O)n(C2CC(F)C(CCl)O2)cc1C=CBr (stereo not given) | 203

Row | Structure (SMILES) | melting point [°C]
21 | CCCOC(C)c1ccc(C(=O)O)cc1 (single isomer, unassigned; (+)) | 56 to 58
22 | CC(=O)SCCC(=O)CCC(=O)O | 72 to 74
23 | CC(C)=CCC/C(C)=C/COc1c(I)c(C)c(I)c(C)c1I | 65 to 66
24 | O=C(Cc1ccc(Cl)cc1)c1cccs1 | 98 to 99
25 | N#CC1CCc2c(OCCn3ccnc3)cccc21 (stereo not given) | 115 to 117
26 | O=C(O)CC1Cc2ccccc2C1 | 85 to 88
27 | Cc1cc(CC(=O)O)sc1C(=O)c1ccccc1 | 86
28 | Cc1oc(-c2ccccc2)nc1COc1ccc(/C=C/C=O)cn1 | 147 to 148
29 | N#Cc1ccc(N2CCN(Cc3cnc4c(c3)NC(=O)[C@@H]3CCCN43)CC2)c(F)c1 | 226
30 | Nc1nonc1-c1nc2ccccc2n1CC(=O)C=Cc1ccccc1 | 176 to 180
31 | CC(C)=CCc1c(O)ccc(CCCc2ccc(O)cc2)c1O | 115 to 116
32 | O=C(O)CN1C(=O)C(=CC=Cc2ccccc2Br)SC1=S | 241 to 244
33 | COc1nscc1[N+](=O)[O-] | 118 to 122
34 | CN1CC(CO)OC1=C(C#N)C=C1Nc2ccccc2C1=O (stereo not given) | 236 to 238
35 | O=C1CCC(Cc2ccc(Cl)cc2)N1 (stereo not given) | 95 to 98
36 | Cc1cc(Oc2ccc(Cl)c(C(F)(F)F)c2)ncc1N | 105 to 107
37 | CC(=O)OCC(=O)C1(OC(C)=S)CCC2C3CC(C)C4=CC(=O)C=CC4(C)C3C(O)CC21C (stereo not given) | 149 to 151
38 | CN1CCC(=C2c3ccccc3CC(=O)c3ccccc32)CC1 | 138 to 140
39 | O=C1NCN2c3ccccc3Sc3cccc1c32 | 187 to 192
40 | O=Cc1cc(F)c(NC(=O)C(F)(F)F)c(F)c1 | 122 to 125

Row | Structure (SMILES) | melting point [°C]
41 | Cc1ncn(C(=O)Nc2ccccc2)c1Cl | 112 to 114
42 | O=C(N[C@@H](Cn1cccn1)C(=O)O)OCc1ccccc1 | 166 to 168
43 | c1cc(-c2cn([C@H]3CN4CCC3CC4)nn2)ccn1 | 150
44 | Cc1cc(C#N)c(O)c(C(=O)O)c1 | 213 to 214
45 | CCCc1c(C(N)=O)sc(SC)c1-c1oncc1-c1ccccc1 | 140 to 141
46 | CCc1c(C(=O)NNC(=O)C(O)c2cc(F)cc(F)c2)ccc(O)c1C (stereo not given) | 187
47 | Cc1cc(C)nc(NC(=O)NS(=O)(=O)N2CCCC2)n1 | 180 to 181
48 | Nc1c(Cl)cc(C(O)CNCCCCCOCCc2ccc(F)cc2)cc1Cl (stereo not given) | 75 to 76
49 | CC(=O)n1nc(C)c(Oc2cc(Cl)cc(Cl)c2)c1C | < 60
50 | Fc1ccc(COc2ncc(F)c(N=CN3CCCC3)n2)cc1 | 102 to 103
51 | CCCNC(=O)c1cc2ccc(OC)cc2n1CCNC(C)=O | 127 to 128
52 | Cc1c(Br)c2c(c3c1C(c1ccc(C(C)C)cc1)CO3)CCC2 (stereo not given) | 127 to 128
53 | N#Cc1ccc(NCc2cc3c(cc2O)CCO3)s1 | 158 to 160
54 | CC1=C(c2ccccc2)C(=O)N(C(C)(C)c2cc(Cl)c(F)c(Cl)c2)C1 | 164 to 167
55 | Cc1nn2c(=O)c(CCCl)c(C)nc2s1 | 118
56 | CC(C)(C)CNc1cc(Cl)nc(N2CCCC2)n1 | 130 to 135
57 | CC1(C)CCCC(C)(C)N1c1nc(N2CCCC2)cc(N2CCNCC2)n1 | 134 to 137
58 | Cc1c(C=CC=O)c2c(c(C)c1OCc1ccccc1)CCC(C)(C)O2 | 89 to 99.5
59 | CNc1nc(N)nc2c1nnn2Cc1ccccc1F | 252 to 254

Results, then the molecule that gave them:

Row | melting point [°C] | Structure (SMILES)
60 | 165 to 166 | CCOP(=O)(Cc1ccc(C(=O)Nc2ccc(Br)cc2C#N)cc1)OCC
61 | 132 | COC(=O)C(c1ccc(Cl)cc1)(c1ccc(Cl)cc1)c1ncc[nH]1
62 | 208 | CCOc1ccc2c(c1)n(C1CCCCC1)c(=O)n2S(=O)(=O)c1ccc(NC(=O)N(C)C(C)(C)C)cc1OC
63 | 185 to 186 | Cn1ccnc1C(O)(c1ccccc1)c1ccc(Cl)cc1 (stereo not given)
64 | 124 to 126 | CCCn1cc(Cc2ccc(C(=O)O)cc2OC)c2cc(C=CCC(=O)N(C)C)ccc21
65 | 243 to 244 | CN(C)c1nc2cc(NC(=O)c3c(C(=O)N4CC(F)C4)cnn3C)ccn2n1
66 | 186 | COc1ccc(Nc2nc(Cl)nc(NC3CC3)n2)cc1F
67 | 201 to 203 | COc1ccc(CNc2cc(C(N)=O)c([N+](=O)[O-])cc2[N+](=O)[O-])cc1
68 | 180 to 182 | COc1cc(Nc2c(C#N)cnc3cc(-c4ccc(CN5CCC[C@@H]5C(N)=O)cc4)ccc23)c(Cl)cc1Cl
69 | 239 to 240 | COc1cc(Nc2c(C#N)cnc3cc(-c4ccc(Cn5ccnn5)cc4)ccc23)c(Cl)cc1Cl
70 | 120 to 122 | CCCC(CCC)n1c(CC)nc2c1c(=O)n(C)c(=O)n2Cc1ccc(OC)cc1
71 | 198 to 201 | O=C(NC(NC(=S)Nc1ccccc1)C(F)(F)F)c1ccc(Cl)cc1 (stereo not given)
72 | 114 | COC(=O)c1oc2c(OC)cccc2c1O
73 | 106 to 108 | CC1CCc2nc(Cl)nc(-c3ccc(F)cc3)c2C1 (stereo not given)
74 | 234 to 236 | Cc1oc2c(-c3ccc(F)cc3)c(-c3ccc(S(C)(=O)=O)cc3)nn2c1-c1ccccc1
75 | > 260 | O=C(O)c1ccc(-c2ccc(Cl)cc2)nc1
76 | 250 to 252 | CCOC(=O)N1CCn2c(nc(-c3ccncn3)cc2=O)C(NC(=O)c2ccccn2)C1 (racemic)
77 | 145 to 146 | Cc1oc(-c2ccccc2)nc1CCC(O)c1ccc(CCC2OC(=O)NC2=O)cc1 (stereo not given)
78 | 172 to 173 | CCn1nc(-c2ccccc2)c(C(C)=O)c(Nc2cccc3ccc(C)nc23)c1=O
79 | 222 to 224 | Cc1ccc(C2=NNC(=O)Cc3cc4c(cc32)OCO4)cc1
80 | > 250 | NC(=O)C1C2C=CC(C2)C1Nc1c(Cl)cnc2[nH]c(-c3ccc4c(c3)CCC3(CCNCC3)O4)nc12 (stereo not given)

Row | melting point [°C] | Structure (SMILES)
81 | 239 to 241 | CCCOc1ccc(S(=O)(=O)N2CCN(CC)CC2)cc1-c1nc2cc(Cl)c([N+](=O)[O-])cc2c(=O)[nH]1
82 | 156 to 157 | Cc1nc([C@H](Cc2ccccn2)N(C=O)c2cc3ccccc3[nH]2)n(C)c1-c1ccc(-n2ccnc2)cc1
83 | 190 to 191 | Cc1c(Cc2cccc(C(F)(F)F)c2)sc2c(-c3cccc(C(N)=O)c3)cccc12
84 | 159 to 160 | O=C(O)CCc1cnn(-c2ccccc2)c1-c1ccccc1
85 | 104 to 106 | O=C(c1ccccc1)N1CC(OCc2ccccc2)C(OCc2ccccc2)C(OCc2ccccc2)C1CO (stereo not given)
86 | 177 to 179 | COC(=O)c1c(C)nn2c(-c3cccc(C(F)(F)F)c3)ccnc12
87 | 204 to 205 | NC(=O)CNC(=O)c1cccc(-c2ccc(Cl)c3cc(Cc4cc(F)cc(Cl)c4)sc23)c1
88 | 163 | COc1ccc(Oc2ccc3ccc(NC(=O)c4ccc(OC)cc4)nc3n2)cc1
89 | 192 to 194 | CNC(=O)c1nn(-c2ccc(Cl)cc2)c(=O)c2c(N)scc12
90 | 148 to 150 | CC(Cc1ccc(OCC(=O)O)c(F)c1)NS(=O)(=O)c1ccccc1 (stereo not given)
91 | 193 to 198 | CNCCCc1c[nH]c(-c2ccc(F)cc2)c1-c1ccncc1
92 | 141 to 143 | COC(=O)C1=Cc2cc(OCc3ccc(F)cc3)ccc2S(=O)(=O)CC1
93 | 90 to 95 | NS(=O)(=O)N(c1ccccc1)c1cccc(C(c2c(O)c3c(oc2=O)CCCCCC3)C2CC2)c1 (stereo not given)
94 | 149 to 150 | CCCN1C(=O)C2(c3ccc(N)cc3)CC(c3ccc(N)cc3)(C2)C1=O
95 | 272 to 273 | COc1ccc(C2=NN(c3ccc(C(=O)Nc4ccc(-c5ccc(=O)[nH]n5)cc4)cc3)C(=O)[C@H]3CC=CC[C@@H]23)cc1OC (relative stereo)
96 | 255 to 256 | COc1cc(C(=O)NS(=O)(=O)c2ccccc2C)ccc1Cc1cccc2ccc(C(N)=O)cc12
97 | 143 | COc1cc(C)cc(-c2n[nH]cc2-c2ccnc(SC)n2)c1
98 | 101 | COc1cccc(-c2ccc(C3C(CCC(O)c4ccc(F)cc4)C(=O)N3c3ccc(F)cc3)cc2)c1OC (stereo not given)
99 | 104 to 105 | COC(=O)COc1c(C)cc(SCc2sc(-c3ccc(C(F)(F)F)cc3)nc2C)cc1C
100 | 153 to 155 | O=C(O)COc1ccc(Br)cc1C(=O)NCc1ccc(Br)cc1F

Reference: a melting point compilation (Tetko et al.; mined from patent text by program, amines drawn as free bases though some values may be those of a salt)
